Laboratory results: patent US10800752B2, “Substituted naphtho[2,3-b]furans as water-soluble prodrugs for preventing and/or treating cancer” (BOSTON BIOMEDICAL, INC., priority 2015, dated 2020)
Where a name gives a salt, the structure may show the parent alone. One block for each molecule: values may come before it.

Assays:
[1] = type: in vivo, CD1 (ICR) mice; conditions: orally administered to mice
Excerpt: It was then centrifuged to obtain plasma.

Solubility test = conditions: pH 2, aqueous buffer, thermodynamic from solid
Description: A water-soluble prodrug was added into 50 mmol/L glycine buffer solution (pH 2.0). After shaking at room temperature for 24 hours, the mixture was filtered through a membrane filter, and then the filtrate was measured with HPLC.
The measurement condition of HPLC is as described below. HPLC condition column: Acquity UPLC BEH C18, 1.7 um, 50×2.1 mm

[2] = Pharmacokinetics test, intravenous administration; conditions: intravenously administered to mice
Description: For water-soluble prodrugs described in the EXAMPLES, the concentration of 2-acetylnaphtho[2,3-b]furan-4,9-dione (Activated form 1) in plasma was measured. Animal species, an administration method, a method of making standard solutions, and a method of measuring the concentration in plasma are as described below.
Animal: Seven-week-aged male CD1 (ICR) mice were used as an experimental animal.
Administration method: A test substance was weighed, and then dissolved in 50 mmol/L glycine buffered saline (pH 2.0) to produce an administration solution. The body weight of a mouse was measured, and the prepared administration solution was intravenously administered.
Blood collecting method: Heparin was added to a blood-collecting vessel, and blood was collected from a mouse. To the obtained blood, 46% of Citric acid was added in 1% volume. It was then centrifuged to obtain plasma. To the collected plasma, 1 mol/L HCl was added in 10% volume to produce a plasma sample. A sample obtained by adding 10% volume of 1 mol/L HCl to blank plasma was used as a blank sample.
Making of a standard solution: One mg of a test sample was weighed, and dissolved in 10 mL of acetonitrile using a measuring flask to make a standard solution of 100 ug/mL.
Measurement of the concentration in plasma: One hundred ug/mL of the standard solution was diluted in 50% acetonitrile solution to make calibration curve samples of target concentrations. Twenty uL of a blank sample was added to 18 uL of the calibration curve sample to make a plasma calibration curve sample. Eighteen uL of 50% acetonitrile solution was added to 20 uL of the administered plasma sample to make a sample for plasma analysis. One hundred uL of acetonitrile (containing 1% volume of 10 mol/L HCl) containing an internal standard was added to the plasma calibration curve sample and the sample for plasma analysis, respectively. It should be noted that phenytoin was used as the internal standard and its concentration was prepared in 100 nmol/L. 10 uL of each sample was analyzed with LC-MS. A calibration curve was made from a value (peak ratio) of the peak area of a test substance in MS divided by the peak area of the internal standard, and the concentrations of plasma calibration curve samples. The concentration in a sample was calculated from the peak ratio of each sample and the calibration curve.

[3] = Evaluation of a conversion rate to 2-acetylnaphtho[2,3-b]furan-4,9-dione in pH 7.4 phosphate buffer solution; type: physicochemical; conditions: Phosphate buffer solution (pH 7.4), 1 umol/L, 37° C., incubation time 120 min
Summary of the method: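 Compounds at 1 umol/L were incubated at 37° C in human plasma, CD1 mouse plasma or pH 7.4 phosphate buffer, sampled up to 120 minutes, acid/acetonitrile-deproteinised and analysed by LC-MS (ESI positive). Conversion (%) derived from the peak area ratio of the active form to phenytoin internal standard.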

[4] = Evaluation of a conversion rate to 2-acetylnaphtho[2,3-b]furan-4,9-dione in human plasma; type: in vitro ADME; conditions: human, 120 min, 1 umol/L
Summary of the method: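 Compounds at 1 umol/L incubated at 37° C in human plasma, CD1 mouse plasma or pH 7.4 phosphate buffer, sampled up to 120 minutes. After acidified acetonitrile protein removal, parent loss and conversion to 2-acetylnaphtho[2,3-b]furan-4,9-dione measured by LC-MS (ESI positive).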

[5] = Evaluation of a conversion rate to 2-acetylnaphtho[2,3-b]furan-4,9-dione in CD1 mouse plasma; type: in vitro ADME; conditions: CD1, mouse, 120 min, 1 umol/L
Description: For test compounds, the decrease rate of the test compounds and the conversion rate thereof to 2-acetylnaphtho[2,3-b]furan-4,9-dione in human plasma, CD1 mouse plasma, and pH 7.4 phosphate buffer solution were measured.
Test compounds were incubated at the concentration of 1 umol/L in human plasma (cat. no. 12250210, COSMO BIO), CD1 mouse plasma (cat. no. AP3054, KAC), and phosphate buffer solution at 37° C., and removed at predetermined times (0, 5, 10, 30, 60, and 120 minutes). After protein-removing treatment was performed, they are analyzed with LC-MS. It should be noted that the protein-removing treatment used acetonitrile containing: 10% volume of 1 mol/L hydrochloric acid; 1% volume of 46% citric acid; and phenytoin as an internal standard.
The measurement condition of LC-MS is as described below. LC-MS condition column: Kinetex 2.6 u PFP 100 A 50×2.1 mm Column temperature: 40° C.
Mobile phase: A: 0.1% formic acid-containing water
• B: 0.1% formic acid-containing acetonitrile A/B(min): 95/5(0)→5/95(3)→5/95(4)→95/5(4.1)→95/5(6) Flow rate: 0.4 mL/min Detection: ESI (positive mode) Injection volume: 10 uL
Measurement values are calculated from the peak area ratio in LC-MS between an internal standard material, phenytoin and an active form, 2-acetylnaphtho[2,3-b]furan-4,9-dione, and are expressed in %.
In the same way as Example 6, the incubation time was set as 120 minutes later, and the conversion rate of each of various test compounds to 2-acetylnaphtho[2,3-b]furan-4,9-dione in human plasma, CD1 mouse plasma, and pH 7.4 phosphate buffer solution was measured. A series of the present compounds were confirmed to be converted to 2-acetylnaphtho[2,3-b]furan-4,9-dione in pH 7.4 phosphate buffer solution in addition to human plasma and CD1 mouse plasma. Therefore, a series of the test compounds of the present invention were confirmed to be converted to the activated form via a route other than an enzymatic conversion.

Solution stability test = type: physicochemical; conditions: for % Residual ratio: 25 umol/L
Description: For Example 6, Example 11, and Example 22, the stability in each pH was measured. Test compounds at a concentration of 25 umol/L in respective buffer solutions prepared at pH 2.0, 3.0, 5.0, 7.4, and 9.0 were allowed to stand at 25° C. After 0, 3, 6, 9, 12, and 24 hours, they were measured with HPLC.
The buffer solutions used at respective pHs are as described below. pH 2.0: 50 mmol/L glycine buffer solution pH 3.0: 50 mmol/L citrate buffer solution pH 5.0: 50 mmol/L citrate buffer solution pH 7.4: 50 mmol/L phosphate buffer solution pH 9.0: 50 mmol/L glycine buffer solution
The measurement condition of HPLC is as described below.
Column temperature: 40° C.
Mobile phase: A: 0.1% trifluoroacetic acid-containing water

Compound: CC(=O)c1cc2c(OC(=O)NCCNCC(=O)O)c3ccccc3c(OC(=O)NCCNCC(=O)O)c2o1 [Example 4, 2,2′-((((((2-Acetylnaphtho[2,3-b]furan-4,9-diyl)bis(oxy))bis(carbonyl))bis(azanediyl))bis(ethane-2,1-diyl))bis(azanediyl))diacetic acid dihydrochloride]
concentration of 2-acetylnaphtho[2,3-b]furan-4,9-dione (Activated form 1) observed (in words) [1]: high concentration
solubility at 24 hours (Solubility test; Solubility in pH 2.0 buffer solution, 50 mmol/L glycine buffer solution (pH 2.0), room temperature, 24 hours shaking): > 5000 µg/mL
production of 2-acetylnaphtho[2,3-b]furan-4,9-dione (Activated form 1) (in words) [2]: rapidly produced
% Measurement value (conversion rate to 2-acetylnaphtho[2,3-b]furan-4,9-dione) ([3]; dihydrochloride): 53%

Compound: CC(=O)c1cc2c(OC(=O)NCCNCCC(=O)O)c3ccccc3c(OC(=O)NCCNCCC(=O)O)c2o1 [Example 5, 3,3′-((((((2-Acetylnaphtho[2,3-b]furan-4,9-diyl)bis(oxy))bis(carbonyl))bis-(azanediyl))bis(ethane-2,1-diyl))bis(azanediyl))dipropionic acid dihydrochloride]
concentration of 2-acetylnaphtho[2,3-b]furan-4,9-dione (Activated form 1) observed (in words) [1]: high concentration
production of 2-acetylnaphtho[2,3-b]furan-4,9-dione (Activated form 1) (in words) [2]: rapidly produced
% Measurement value (conversion rate to 2-acetylnaphtho[2,3-b]furan-4,9-dione) ([3]; dihydrochloride): 70%

solubility at 24 hours (Solubility test; glycine buffer solution): > 5000 µg/mL
% Measurement value (conversion rate to 2-acetylnaphtho[2,3-b]furan-4,9-dione) [4]: 37%
% Measurement value (conversion rate to 2-acetylnaphtho[2,3-b]furan-4,9-dione) [5]: 56%
% Measurement value (conversion rate to 2-acetylnaphtho[2,3-b]furan-4,9-dione) [3]: 22%
stability in solution (in words) (Solution stability test; pH 2.0, 25° C.): sufficient stability
% Residual ratio (Solution stability test; pH 2.0, 25° C., 0 hr): 100%
% Residual ratio (Solution stability test; pH 2.0, 25° C., 3 hr): 97.0%
% Residual ratio (Solution stability test; pH 2.0, 25° C., 6 hr): 96.3%
% Residual ratio (Solution stability test; pH 2.0, 25° C., 9 hr): 97.8%
% Residual ratio (Solution stability test; pH 2.0, 25° C., 12 hr): 97.1%
% Residual ratio (Solution stability test; pH 2.0, 25° C., 24 hr): 91.8%
stability in solution (in words) (Solution stability test; pH 3.0, 25° C.): sufficient stability
% Residual ratio (Solution stability test; pH 3.0, 25° C., 0 hr): 100%
% Residual ratio (Solution stability test; pH 3.0, 25° C., 3 hr): 98.6%
% Residual ratio (Solution stability test; pH 3.0, 25° C., 6 hr): 97.8%
% Residual ratio (Solution stability test; pH 3.0, 25° C., 9 hr): 96.9%
% Residual ratio (Solution stability test; pH 3.0, 25° C., 12 hr): 96.0%
% Residual ratio (Solution stability test; pH 3.0, 25° C., 24 hr): 92.6%
% Residual ratio (Solution stability test; pH 5.0, 25° C., 0 hr): 100%
% Residual ratio (Solution stability test; pH 5.0, 25° C., 3 hr): 81.2%
% Residual ratio (Solution stability test; pH 5.0, 25° C., 6 hr): 69.4%
% Residual ratio (Solution stability test; pH 5.0, 25° C., 9 hr): 58.8%
% Residual ratio (Solution stability test; pH 5.0, 25° C., 12 hr): 49.7%
% Residual ratio (Solution stability test; pH 5.0, 25° C., 24 hr): 24.5%
% Residual ratio (Solution stability test; pH 7.4, 25° C., 0 hr): 100%
% Residual ratio (Solution stability test; pH 7.4, 25° C., 3 hr): 0%
% Residual ratio (Solution stability test; pH 7.4, 25° C., 6 hr): 0%
% Residual ratio (Solution stability test; pH 7.4, 25° C., 9 hr): 0%
% Residual ratio (Solution stability test; pH 7.4, 25° C., 12 hr): 0%
% Residual ratio (Solution stability test; pH 7.4, 25° C., 24 hr): 0%
% Residual ratio (Solution stability test; pH 9.0, 25° C., 0 hr): 100%
% Residual ratio (Solution stability test; pH 9.0, 25° C., 3 hr): 0%
% Residual ratio (Solution stability test; pH 9.0, 25° C., 6 hr): 0%
% Residual ratio (Solution stability test; pH 9.0, 25° C., 9 hr): 0%
% Residual ratio (Solution stability test; pH 9.0, 25° C., 12 hr): 0%
% Residual ratio (Solution stability test; pH 9.0, 25° C., 24 hr): 0%
Compound: CC(=O)c1cc2c(OC(=O)OCCC[C@H](N)C(=O)O)c3ccccc3c(OC(=O)OCCC[C@H](N)C(=O)O)c2o1 [Example 22]

solubility at 24 hours (Solubility test; glycine buffer solution): > 5000 µg/mL
production of 2-acetylnaphtho[2,3-b]furan-4,9-dione (Activated form 1) (in words) [2]: rapidly produced
Compound: CC(=O)c1cc2c(OC(=O)OCCCCNCC(=O)O)c3ccccc3c(OC(=O)OCCCCNCC(=O)O)c2o1 [Example 23, 2,2′-((((((2-Acetylnaphtho[2,3-b]furan-4,9-diyl)bis(oxy)bis(carbonyl))bis(oxy))bis(butane-4,1-diyl))bis(azanediyl)diacetic acid dihydrochloride]
